Assays:
Proteus mirabilis 18 = test: Minimal inhibitory concentration, two-fold agar-plate dilution method; assay type: cell-based; details: HI-agar, 37° C., 20 hours
Procedure: (§1) (A) Minimal inhibitory concentration (1) Test Method In vitro antibacterial activity was determined by the two-fold agar-plate dilution method as described below. One loopful of an overnight culture of each test strain in Trypticase-soy broth (10^8 viable cells per ml) was streaked on heart infusion agar (HI-agar) containing graded concentrations of representative test compound, and the minimal inhibitory concentration (MIC) was expressed in terms of μg/ml after incubation at 37° C. for 20 hours.

Proteus vulgaris 2 = test: as above; assay type: cell-based; details: HI-agar, 37° C., 20 hours
Procedure: as §1

Urinary excretion = assay type: in vivo; details: rat; rats, oral administration of 100 mg/kg, urine 0 to 6 and 6 to 24 hours, bioassay; read-out: Urinary recovery in 24 hours (%)
Procedure: Urine of rats was collected with a urine collector at 0 to 6, and 6 to 24 hours after oral administration of 100 mg/kg of the test antibiotic. The antibiotic levels in the urine samples were bioassayed with the standard solution prepared with M/15 phosphate buffer (pH 7.0) and the urinary recovery in 24 hours was calculated.

in vivo = details: rat, po, 100 mg/kg
Procedure: Rats anesthetized with pentobarbital were fixed in supine position, and a polyethylene cannula was inserted into the bile duct. Bile samples were collected at 0 to 3, 3 to 6, and 6 to 24 hours after oral administration of 100 mg/kg of the test antibiotic. The antibiotic levels in the bile samples were bioassayed with the standard solutions prepared with M/15 phosphate buffer (pH 7.0) and the biliary recovery in 24 hours were calculated.

- MIC (Proteus mirabilis 18): < 0.025 µg/mL
- MIC (Proteus vulgaris 2): < 0.025 µg/mL
- dose excreted at 24 h (Urinary excretion): 20.2%
- dose excreted at 24 h (in vivo): 8.97%
Compound: O=C(O)CO/N=C(\C(=O)NC1C(=O)N2C(C(=O)O)=C(CSc3ccc4nnnn4n3)CSC12)c1cscn1 (stereo not drawn) [Test Compound (1), 7-[2-Carboxymethoxyimino-2-(4-thiazolyl)acetamido]-3-(tetrazolo[1,5-b]pyridazin-6-yl)thiomethyl-3-cephem-4-carboxylic acid (syn isomer)]
